# Experimental data as given in the SangsterLogP compilation.
# Assay: method code SF-AS, from DOI: 10.1248/cpb.22.2064
# Conditions: pH 7.4
row,Structure (SMILES),logD
1,Cc1c(N2CCCCC2)c(=O)n(C)c(=O)n1-c1ccccc1,3.21
2,Cc1c(N2CCOCC2)c(=O)n(-c2ccccc2)c(=O)n1C1CCCCC1,2.37
3,Cc1c(N2CCCCC2)c(=O)n(C)c(=O)n1C1CCCCC1,3.68
4,Cc1c(N2CCCC2)c(=O)n(C)c(=O)n1-c1ccccc1,2.68
5,Cc1c(N2CCOCC2)c(=O)n(-c2ccccc2)c(=O)n1-c1ccccc1,1.44
6,Cc1c(NCC(C)C)c(=O)n(-c2ccccc2)c(=O)n1-c1ccccc1,2.4
7,Cc1c(N2CCCC2)c(=O)n(C)c(=O)n1C1CCCCC1,3.55
8,Cc1c(NCC(C)C)c(=O)n(-c2ccccc2)c(=O)n1C1CCCCC1,3.27

# Continued, values first:
row,logD,Structure (SMILES)
1,2.53,Cc1c(N(C)C)c(=O)[nH]c(=O)n1C1CCCCC1
2,3.24,Cc1c(N2CCCCC2)c(=O)n(-c2ccccc2)c(=O)n1-c1ccccc1
3,2.47,Cc1c(N(C)C)c(=O)n(Cc2ccccc2)c(=O)n1C
4,3.02,Cc1c(N(C)C)c(=O)n(C2CCCCC2)c(=O)n1C
5,2.65,Cc1c(N(C)C)c(=O)n(C2CCCC2)c(=O)n1C
6,2.94,Cc1c(N(C)C)c(=O)n(C)c(=O)n1C1CCCCC1
